Measured values as given in US20260325485A1, “COMPOSITIONS AND METHODS FOR TREATING PANCREATITIS” (The United States Government as represented by the …, priority 2022, published 2026).

Key:
[1] = tested on: cerulein pancreatitis (CER-AP); assay: Drug treatment of cerulein pancreatitis (CER-AP) in WT mice; assay type: in vivo, mouse
Experimental: FIGS. 10A-10N show deranged cholesterol metabolism causes acinar cell damage, while its normalization ameliorates experimental pancreatitis. (A-D) Cholesterol content and trypsin activity were measured (per mg protein) in WT mouse acinar cells incubated for 1 hour without and with methyl-β-cyclodextrin (MCD; 10 mM) or cholesterol-loaded MCD (MCD-Chol; 200 μg/mL), in the presence or absence of 100 nM CCK. Values are expressed relative to those in cells without MCD/MCD-Chol. (E-J) WT mice received daily i.p. injections of the LXR agonist T0901317 (T09), simvastatin (Sim; 20 mg/kg each), or vehicle. On day 4, mice were subjected to CER-AP and pancreata collected for analyses (see also FIG. 20). Cholesterol content (E), trypsin activity (F), and pancreas histopathology (H&E staining; G) were measured. (H, I, L, and N) IB analysis of markers/mediators of autophagy (LC3, p62), ER stress (CHOP, GRP-78), and mitophagy (Parkin). Ub, ubiquitylated proteins. (J) Mitochondrial fragmentation was assessed by immunostaining for Tom20, as detailed in FIG. 7G. (K and L) Mouse acinar cells were treated for 16 hours with LDL (30 μg/mL) or the combination of LDL and 10 μM U18666A. (M and N) Mice received injections of U18666A as detailed in FIG. 9B. Pancreas histopathology (H&E staining; M) and levels of autophagy markers/mediators (N) were measured. Each symbol in A-F and I represents an individual mouse or cell preparation. Values are mean±SEM from 3 to 7 mice or cell preparations per condition. ^§ P<0.05, ^§§ P<0.01 vs. control cells (without MCD/MCD-Chol). ***P<0.001 vs. saline-treated mice. ^#P<0.05, ^##P<0.01, ^###P<0.001 vs. CER-AP alone (no inhibitors). Significance was determined by 2-tailed Student's t test (A-D) or 1-way ANOVA followed by Tukey's multiple comparison test (E, F, and I). Scale bars: 10 μm.
FIGS. 20A-20C show simvastatin improves cerulein pancreatitis. Mice received daily i.p. injections of simvastatin (Sim; 20 mg/kg) or vehicle (see FIG. 10), and on day 4 were subjected to cerulein pancreatitis (CER-AP). (A) Pancreas histopathology (H&E staining; scale: 10 μm). (B) IB analysis of markers/mediators of autophagy (LC3, p62), ER stress (CHOP), and the MLN64/STARD3 protein mediating cholesterol transfer from LE/Ly to mitochondria. Each IB lane represents an individual mouse; ERK1/2 is the loading control. […] Ub, ubiquitylated proteins. (C) Pancreatitis responses. Values are mean±SEM from 7-13 mice for each condition. ***p<0.001 vs saline control. ^###p<0.001 vs CER-AP alone (no simvastatin). Significance was determined by 1-way ANOVA followed by Tukey's multiple comparisons test.
FIGS. 25A-25C show reducing cholesterol overload greatly ameliorates experimental pancreatitis. CER-AP responses were measured in (A) AclyAac or (C) WT mice treated with simvastatin or bempedoic acid (BemA). (B) Acinar cells were transfected with ACLA (or mock) siRNA and subjected to ex-vivo CCK-AP. Each symbol represents an individual mouse or cell preparation. Values are mean±SE. **p<0.01, ***p<0.001 vs saline treated control mice (or mock transfection); #p<0.05, ##p<0.01, ###p<0.001 vs CER/CCK-AP in control mice (i.e. without inhibitors) or cells.
Cerulein-induced (CER-AP) and L-arginine induced (Arg-AP) acute pancreatitis models were performed in 12-week-old C57BL/6 mice that received 7 hourly i.p. injections of 50 μg/kg cerulein or 3 hourly i.p. injections of 3.3 g/kg Arg; controls received physiologic saline injections. Mice were euthanized for analyses 7 hours after the first cerulein or 24 hours after the first Arg injection. Choline deficient, ethionine-supplemented (CDE) pancreatitis was induced in young (~5-weeks old) female mice fed either CDE or control diet. Mice were euthanized 72 hours after the diet initiation. These models have been described in detail (1-7).
12-week-old WT mice were subjected for 4 consecutive days to daily i.p. injections of 20 mg/kg simvastatin (8,9) or 20 mg/kg T0901317 (10); or 10 mg/kg U18666A for 15 days (11). […]

pancreas = assay: Drug treatment of Gnptab−/− mice: pancreatic total cholesterol; assay type: in vivo, mouse
Experimental: 12-week-old Gnptab−/− mice were subjected to daily i.p. injections of 20 mg/kg simvastatin or the same dose of T0901317 for 4 or 21 days.
Total cholesterol content was measured with Cholesterol Assay kit per manufacturer's instructions. Samples of mouse pancreas and liver, cell pellet homogenates, subcellular fractions, isolated mitochondria, and serum were diluted in the reaction buffer containing cholesterol probe and incubated at 37° C. for 1 h in the dark. To measure total cholesterol, the samples were subjected to digestion with cholesterol esterase. To measure non-esterified cholesterol, the esterase was omitted from the assay.

trypsin = assay: Trypsin activity in Gnptab−/− acinar cells; assay type: cell-based, mouse; details: 3 hours; 50 μM CA-074Me or 20 nM BafA1
Experimental: FIGS. 6A-6R show mechanisms mediating increased trypsin activity in Gnptab−/− pancreas. Trypsin activity and its regulation were analyzed in pancreatic (A, C, and D) tissue, (B and P-R) acinar cells, (E-H and O) lobules, and (I-N) subcellular fractions. In B, acinar cells were incubated for 3 hours without and with 20 nM BafAl or 50 μM CatB inhibitor CA-074Me; in P-R, with the cholesterol chelator methyl-β-cyclodextrin (MCD) at the indicated concentrations. In E-H, pancreatic lobules were double stained for TAP and LC3 or LAMP2; in O, for TAP and filipin. Quantitative colocalization analysis was done as detailed in FIG. 2. Each symbol in A, B, J-N, Q, and R represents an individual mouse or cell preparation (n=3-8 per condition). Each symbol in D, G, and H corresponds to 20 to 30 cells in a different field (n=9-20 fields from 3 WT and 3 KO mice or lobule preparations). Values are mean±SEM. **P<0.01, ***P<0.001 vs. WT tissue/lobules (A, G, and H) or corresponding WT subcellular fraction (K and M). ##P<0.01 vs. no inhibitors (B) or MCD (Q and R). ††P<0.01, †††P<0.001 vs. the other two fractions (L and N). Significance was determined by 2-tailed Student's t test (A, G, and H) or 1-way ANOVA followed by Tukey's multiple comparison test (B, K-N, Q, and R). Scale bars: 10 μm.
Activities of cathepsin (Cat) B and L, caspase-3, trypsin, and lysosomal acid lipase (LAL) were measured in pancreatic tissue or cell homogenates and subcellular fractions with fluorogenic assays using substrates specific for CatB (Z-Arg-Arg-AMC), CatL (Z-Phe-Arg-AMC), caspase-3-like ([…]), trypsin (Boc-Gln-Ala-Arg-AMC), as previously described (1-4, 6, 7); and for LAL (4-methylumbelliferyl oleate), as in (17). In measurements of CatL activity, the assay buffer also contained 50 μM CA-074me, a CatB inhibitor. LAL activity was measured in the absence and presence of the LAL inhibitor lalistat (100 μM) as the difference between these values (17).

acinar cells = assay: Oxygen consumption rate (OCR) of acinar cells, Seahorse; assay type: cell-based, mouse; details: etomoxir 40 μM
Experimental: FIGS. 7A-7Q show Gnptab ablation causes mitochondrial dysfunction in the pancreas. Mitochondrial functional parameters were measured in mitochondria isolated from pancreas (A, D, J, and M) or liver (N-P), in acinar cells (B, C, and I), and pancreatic (E-H, K, and L) and liver (Q) tissues of WT and KO mice. (A and N) Activities of mitochondrial ETC complexes I, II, IV, and V. (B, C, and I) Acinar cell oxygen consumption rates (OCR), reflecting mitochondrial OXPHOS, were measured in basal conditions and after treatment with the B-oxidation inhibitor etomoxir (40 μM), and normalized to total protein in the sample. (B) Representative OCR tracings in acinar cell suspension subjected to consecutive injections of the ATP synthase inhibitor oligomycin (Oligo; 3 μM), protonophore FCCP (2.7 μM), and […] rotenone plus antimycin A (R+A, 5 μM each; to correct for nonmitochondrial respiration). (C and I) ATP-linked respiration was calculated as the difference between basal OCR and that in Oligo-treated cells; the maximal OCR was obtained in FCCP-treated cells. (D and O) Mitochondrial membrane potential (ΔΨm) was measured with a tetraphenyl phosphonium ion (TPP+) electrode. FCCP (5 μM) was added to completely dissipate ΔΨm. (E) ATP was measured in pancreatic tissue homogenate with luciferin-luciferase assay. […] (G) Mitochondrial fragmentation was assessed by changes in Tom20 or VDAC immunostaining pattern, from an interconnected tubular mitochondrial network in WT to a predominantly disjoined/circular one in KO pancreas. […] (K) Long-chain acylcarnitines were measured with LC-MS/GC-MS. […] Significance was determined by 2-tailed Student's t test.
Oxygen consumption rates (OCR) were measured in live acinar cells using Seahorse XFe96, as in (15). […] In all within-set experiments the same volume of cell suspension were used with the same amount of protein; and partial oxygen pressure was monitored to ensure its stability in the cell suspension.

[2] = CER-AP, T0901317 or simvastatin 20 mg/kg i.p. daily

## O=S(=O)(c1ccccc1)N(CC(F)(F)F)c1ccc(C(O)(C(F)(F)F)C(F)(F)F)cc1 [T0901317]
[1]; CER-AP, 20 mg/kg i.p. daily
  CER-induced increase in MLN64: abrogated
  accumulation of LC3-II: reduced
  accumulation of p62: reduced
  accumulation of ubiquitylated proteins: reduced
  mitochondrial fragmentation (Tom20 IF): normalized
[1]; CER-AP, 20 mg/kg i.p. daily, ER stress
  CHOP levels: decreased
[1]; [2]
  pancreatitis-induced increase in total cholesterol: eliminated
  pancreatitis-induced increase in trypsin activity: eliminated
[1]; H&E, 20 mg/kg i.p. daily
  pancreas histopathology in CER-AP: improved
[1]; discussion statement
  pathologic responses of experimental pancreatitis (impaired autophagy, ER stress and others): reduced
[1]; overall result
  experimental pancreatitis in WT mouse and ex vivo models: ameliorated
pancreas; 20 mg/kg i.p. daily for 4 or 21 days
  total cholesterol content in pancreas, Gnptab−/− mice: Neither treatment changed
pancreas; even for 3 weeks
  pancreatic total cholesterol, Gnptab−/− mice: failed to decrease

## CCCNC(=O)[C@H]1O[C@@H]1C(=O)N[C@H](C(=O)N1CCC[C@H]1C(=O)OC)[C@@H](C)CC [CA-074Me]
trypsin
  Reduction of trypsin activity, Gnptab−/− acinar cells: by half

## CCOC(=O)[C@@]1(CCCCCCOc2ccc(Cl)cc2)CO1 [etomoxir]
Acinar cells; Gnptab−/− (KO) acinar cells
  respiration rates, KO: not significantly reduced
Acinar cells; WT acinar cells
  ATP-linked OCR, WT: inhibition
  basal OCR, WT: inhibition
